Measurements taken from patent US12036212B2, “Enhancement of tumor response to chemotherapy by activation of the asmase/ceramide pathway through timed administration of a short-acting anti-angiogenic agent” (Memorial Sloan-Kettering Cancer Center, priority 2014, dated 2024).

How the values were obtained:
ASMase = ASMase activity radioenzymatic assay in BAEC; format: cell-based, bovine; conditions: for ASMase activation: cisplatin 0.1-50 μM, gemcitabine 100 nM time-course
Procedure: (§1) BAEC were established from the intima of bovine aorta as described^1. Stock cultures were grown in 100-mm dishes in Dulbecco's modified Eagle's medium (DMEM) supplemented with glucose (1 g/liter), 5% heat-inactivated calf serum (CS), penicillin (50 units/ml), and streptomycin (50 μg/ml). Purified human recombinant bFGF (1 ng/ml; R&D Systems, Inc., Minneapolis, MN) was added every other day during the exponential growth phase. […] These plateau phase cells were either used for experiments, or further sub-cultured (up to a maximum of 10 times) at a split ratio of 1:8. For sub-culturing, monolayers were dissociated with STV (0.05% trypsin and 0.02% EDTA in PBS) for 2-3 min at 22° C., washed twice in 5% CS-DMEM, and resuspended in DMEM with supplements as above. These mild conditions of trypsinization were sufficient to detach cells but not injure, stimulate, or affect cell function in a detectable way. BAEC were maintained at 37° C. in 10% CO2 humidified incubators.
ASMase activity was quantified by radioenzymatic assay using [^14C-methylcholine]sphingomyelin (Amersham) as substrate as described (Schissel et al. J Biol Chem, 271, 18431-18436, 1996). Cell lysates were incubated with [^14C-methylcholine]-sphingomyelin substrate (0.026 mCi/9.5 nmol) in 250 mM sodium acetate, pH 5.0 supplemented with 0.1% Triton X-100 and 1 mM EDTA or 0.1 mM ZnCl. Reactions were terminated after 1 h with CHCl3:MeOH:1N HCl (100:100:1, v/v/v), and [^14C-methylcholine]phosphocholine product in the aqueous layer of the Folch extract was quantified using a Beckman Packard 2200 CA Tricarb scintillation counter. For detection of ASMase activity in patients, 10 μl of serum was used.
To test the effect of chemotherapy on ASMase signaling and ceramide production, BAEC were treated with paclitaxel (100 nM) and ASMase activity was determined by radioenzymatic assay (Rotolo et al, infra) using [^14C-methylcholine] sphingomyelin (Amersham) as substrate (FIG. 1A). Induction of ASMase activity was observed within 5 minutes after treatment, and the activation continued for 30 minutes. Ceramide generation was monitored using the diacylglycerol kinase assay (Stancevic et al. PLoS ONE 8, e69025, 2013). […] In further support of this, pre-incubation of BAEC with nystatin prior to treatment with chemotherapy inhibits chemotherapy-induced apoptosis (FIG. 3).
(§2) To determine the generality of the results observed, experiments were carried out using an additional endothelial cell line, human coronary artery endothelial cells (HCAEC); experiments were also performed using a different chemotherapeutic agent. […] Next, HCAEC were treated with paclitaxel (100 nM) (data not shown) and etoposide (50 μM) (FIG. 1F), and ceramide generation was evaluated.
To further establish the generality of ASMase activation by various chemotherapeutic agents, BAEC and HCAEC were treated with increasing doses of cisplatin (0.1-50 μM) (data not shown). […] The ASMase/ceramide pathway was activated by chemotherapeutic agents that belong to different classes of chemotherapeutic agents, such as: taxanes, topoisomerase inhibitors, and nucleoside analog metabolic inhibitors. Since such chemotherapy agents are characterized by distinct mechanisms of action in tumor cells, it is surprising that a group of such distinct agents converges on a common molecular (ASMase/ceramide) axis in endothelium. The present confirmation that distinct chemotherapeutic agents activate the ASMase/ceramide pathway permits the present inventors to take into account the results of experiments using single dose radiotherapy, which has been reported to activate the same pathway (Rao, S. S. et al., Axitinib sensitization of high Single Dose Radiotherapy. Radiotherapy and Oncology: Journal of the European Society for Therapeutic Radiology and Oncology 111, 88-93, doi:10.1016/j.radonc.2014.02.010 (2014)).
Gemcitabine was able to activate ASMase in cultured endothelial cells. […]

ceramide [1] = assay: Ceramide generation in HCAEC; format: cell-based, human; conditions: paclitaxel 100 nM, etoposide 50 μM, cisplatin 0.1-50 μM
Procedure: HCAEC were obtained from Clonetics™ Coronary Artery Endothelial Cell Systems (Cambrex Bio Science Inc.). For HCAEC culturing and sub-culturing Clonetics cell system components were used: EBM®-2, Endothelial Cell Basal Medium-2 with addition of Clonetics EGM-2-MV SingleQuots containing growth supplements (Cambrex) (Biomedical Technologies, Inc.). For sub-culturing, monolayers were dissociated with Clonetics® Trypsin/EDTA solution for 2-3 min at 22° C. at a split ratio of 1:4 to expand the cell population for experiments. HCAEC cultures were maintained at 37° C. in 5% CO2 humidified incubators.
After treatment, cells were placed on ice, washed with cold PBS, and lipids were extracted by addition of scraped cells in methanol to an equal volume of chloroform and 0.6 volume of buffered saline/EDTA solution (135 mM NaCl, 4.5 mM KCl, 1.5 mM CaCl2), 0.5 mM MgCl2, 5.6 mM glucose, 10 mM HEPES pH 7.2, 10 mM EDTA). […] After 30 minutes at room temperature, the reaction was stopped by extraction of lipids with 1 ml of chloroform:methanol:1 N HCl (100:100:1), 170 μl of buffered saline solution (BSS) (135 mM NaCl, 1.5 mM CaCl2, 0.5 mM MgCl2, 5.6 mM glucose, and 10 mM HEPES (pH 72), and 30 μl of 100 mM EDTA. The lower organic phase was dried under N2. Ceramide-1 phosphate was resolved by thin-layer chromatography on silica gel 60 plates (Whatman) using a solvent system of chloroform:methanol:acetic acid (65:15:5, v/v/v) and detected by autoradiography, and incorporated ^32P was quantified by liquid scintillation counting. The level of ceramide was determined by comparison with a standard curve generated concomitantly of known amounts of ceramide.
as §2, with “evaluated. […]” for “evaluated.”

ceramide [2] = assay: Ceramide generation (diacylglycerol kinase assay) in BAEC; format: cell-based, bovine; conditions: etoposide 50 μM
Procedure: as §1
After treatment, cells were placed on ice, washed with cold PBS, and lipids were extracted by addition of scraped cells in methanol to an equal volume of chloroform and 0.6 volume of buffered saline/EDTA solution (135 mM NaCl, 4.5 mM KCl, 1.5 mM CaCl2), 0.5 mM MgCl2, 5.6 mM glucose, 10 mM HEPES pH 7.2, 10 mM EDTA). Lipids in the organic phase extract were dried under N2 and subjected to mild alkaline hydrolysis (0.1 N methanolic KOH for 1 hour at 37° C.) to remove glycerophospholipids. Samples were re-extracted, and the organic phase was dried under N2. Ceramide contained in each sample was resuspended in a 100 μl reaction mixture containing 150 μg of cardiolipin, 280 μM diethylenetriaminepentaacetic acid, 51 mM octyl-β-glucopyranoside (Calbiochem), 50 mM NaCl, 51 mM imidazole, 1 mM EDTA, 12.5 mM MgCl2, 2 mM dithiothreitol, 0.7% glycerol, 70 μM β-mercaptoethanol, 1 mM ATP, 10 μCi of [γ-^32P]ATP, 35 μg/ml Escherichia coli diacylglycerol kinase (Calbiochem) at pH 6.5. After 30 minutes at room temperature, the reaction was stopped by extraction of lipids with 1 ml of chloroform:methanol:1 N HCl (100:100:1), 170 μl of buffered saline solution (BSS) (135 mM NaCl, 1.5 mM CaCl2, 0.5 mM MgCl2, 5.6 mM glucose, and 10 mM HEPES (pH 72), and 30 μl of 100 mM EDTA. The lower organic phase was dried under N2. Ceramide-1 phosphate was resolved by thin-layer chromatography on silica gel 60 plates (Whatman) using a solvent system of chloroform:methanol:acetic acid (65:15:5, v/v/v) and detected by autoradiography, and incorporated ^32P was quantified by liquid scintillation counting. The level of ceramide was determined by comparison with a standard curve generated concomitantly of known amounts of ceramide.
To test the effect of chemotherapy on ASMase signaling and ceramide production, BAEC were treated with paclitaxel (100 nM) and ASMase activity was determined by radioenzymatic assay (Rotolo et al, infra) using [^14C-methylcholine] sphingomyelin (Amersham) as substrate (FIG. 1A). […] Ceramide generation was monitored using the diacylglycerol kinase assay (Stancevic et al. PLoS ONE 8, e69025, 2013). […]
as §2, with “evaluated. […]” for “evaluated.”

BAEC = assay: Apoptosis in vitro (Hoechst nuclear staining) in BAEC; format: cell-based, bovine; conditions: bovine endothelial cells; cisplatin up to 50 μM; etoposide 50 μM alone, 8 hours
Procedure: Apoptosis was assessed in vitro by examining morphologic changes in nuclear chromatin using bis-benzimide trihydrochloride (Hoechst #33258; Sigma-Aldrich, Milwaukee WI). BAEC and HCAEC monolayer cultures were first detached using 0.25% trypsin and 0.02% EDTA in HBSS and then combined with the floating population of cells. The cell pellet was washed in PBS, resuspended in 3% paraformaldehyde, and incubated for 10 min at 22° C. Following the removal of fixative, cells were resuspended in PBS containing 8 μg/ml of Hoechst-33258. Following a 15-min incubation at 22° C., cells were placed on a glass slide, and scored for the incidence of apoptotic chromatin changes using fluorescence microscope.
Since the ASMase/ceramide pathway is known to play a critical role in endothelial injury and dysfunction, BAEC and HCAEC were treated with paclitaxel (100 nM), etoposide (50 μM), and cisplatin (0.1-50 μM), and endothelial apoptosis was assessed.
To set the basis for experiments involving evaluation of anti-angiogenic therapy in combination with chemotherapy, and the role of ASMase/ceramide pathway in this process, the effects of various factors on the chemotherapy induced cell death were assessed. BAEC were pre-incubated for 30 min with bFGF (2 ng/mL), VEGF (2 ng/mL) or nystatin (30 μg/mL) prior to treatment with etoposide (50 μM), and apoptosis was evaluated after 8 hours using bis-benzamide trihydrochloride staining (FIG. 3).

[3] = system: MCA/129 fibrosarcoma tumors; assay: IVIM MRI of vascular perfusion in MCA/129 fibrosarcoma tumors; format: in vivo, mouse; conditions: gemcitabine 240 mg/kg i.p.
Excerpt: IVIM DW-MRI was first described by Le Bihan et al. (MR imaging of intravoxel incoherent motions: application to diffusion and perfusion in neurologic disorders. Radiology 1986; 161: 401-407). The novelty of our approach lies in repeatedly acquiring IVIM data over time (e.g. “dynamic” IVIM) to monitor the acute effects of radiation (or chemotherapy), a strategy which has not been previously reported. No intravenous contrast administration is required, and IVIM parameters can be measured many times, allowing us to define kinetics of vascular dysfunction after radiation or chemotherapy. Other alternatives, such as DCE-MRI or ^15O-PET, would not serve our purpose as well: although they may be highly reflective of tissue vascularity they cannot be re-injected into a patient to serially monitor changes in vascularity over time. IVIM parameters including perfusion fraction (f), pseudo-diffusion coefficient (D*) and diffusion coefficient (D) were calculated for each lesion, using a biexponential signal decay model and incorporating a correction to account for differences in the T1 and T2 relaxation times of tissue and blood, respectively.
Briefly, MCA/129 fibrosarcoma tumors were implanted in the rear mouse hip, and subjected to intravoxel incoherent motion (IVIM) MRI when tumors reached a size of 150-300 mm^3. […] Data (mean±SEM) are collated from 6 animals per group.

MCA/129 fibrosarcomas = assay: Endothelial apoptosis in vivo (TUNEL/MECA-32) in MCA/129 fibrosarcomas; parameters: species or system mice; conditions: gemcitabine 240 mg/kg
Procedure: Human HCT-116 colon cancer cells and MCA/129 murine sarcoma cells were maintained in DMEM with 10% fetal bovine serum, with 100 u/ml penicillin and 100 μg/ml streptomycin. Cells were grown as monolayers in 75 cm^2 culture flasks at 37° C. in 10% CO2 humidified incubators. Cells were trypsinized, washed in PBS and diluted in Matrigel/PBS solution (40:60 v/v) for HCT-116 xenografts or in PBS for MCA/129 syngeneic tumor grafts. Cells (3×10^6 for HCT-116 or 1×10^6 for MCA129) were injected subcutaneously into the flanks of mice (Garcia-Barros et al. Science 300, 1155-1159, 2003).
To evaluate acute endothelial apoptosis, tumors were grown in mice and treated with drugs as above. After the first treatment, tumors were harvested at specified times, placed into formalin overnight and paraffin-embedded the next day. Paraffin-embedded sections (5 μm) were co-stained for apoptotic endothelium using TUNEL and the endothelial-specific monoclonal antibody MECA-32 (Developmental Studies Hybridoma Bank, developed under the auspices of the NICHD and maintained by The University of Iowa, IA).
Similar results were observed using MCA/129 murine fibrosarcoma tumors implanted in Sv129/Bl6^asmase+/+ mice. […] After 4 hours of treatment, tumors were harvested and endothelial cell apoptosis quantified.

SMILES | ASMase activation remained for (ASMase; etoposide 50 μM) | ASMase activation (ASMase; etoposide 50 μM) | Ceramide generation (ceramide [1]) | Ceramide formation remained for (ceramide [2]) | Ceramide generation (ceramide [2]; paclitaxel 100 nM, cisplatin 0.1-50 μM) | Apoptotic response (BAEC) | Dose dependence of ASMase activation (ASMase; increasing doses of gemcitabine, 5 minutes) | Time of peak vascularity and diffusion reduction after treatment [3] | Diffusion (D*) ([3]; over 1 hour) | Vascularity (Fp) ([3]; over 1 hour) | Endothelial cell apoptosis (MCA/129 fibrosarcomas; Sv129/BL6 asmase+/+) | Tumor cell apoptosis (MCA/129 fibrosarcomas)
COc1cc([C@@H]2c3cc4c(cc3[C@@H](O[C@@H]3O[C@@H]5CO[C@@H](C)O[C@H]5[C@H](O)[C@H]3O)[C@H]3COC(=O)[C@H]23)OCO4)cc(OC)c1O [etoposide] | 30 min | activation of ASMase | leads to the generation of ceramide | 30 min | ceramide formation within a few minutes | significantly induces apoptosis |  |  |  |  |  | 
Nc1ccn([C@@H]2O[C@H](CO)[C@@H](O)C2(F)F)c(=O)n1 [gemcitabine] |  | triggered rapid cellular activation of ASMase |  |  |  |  | dose-dependent manner | 15 to 30 min | reduced in a reversible manner | reduced in a reversible manner | induced time-dependent endothelial cell apoptosis | did not cause tumor cell apoptosis
